# Like-named read-outs stand apart in the source and are kept apart here.
# Columns and labels:
# Format in all cases: in vivo
# Phakopsora pachyrhizi = assay: Phakopsora test (soybeans)/preventive; settings: Phakopsora pachyrhizi, 168 h, 7 days after inoculation, read-out: Efficacy in % found; for pest or weed control at 0.25 ppm: 0.25 ppm a.i.
# Sphaerotheca fuliginea = assay: Sphaerotheca test (cucumbers)/preventive; settings: Table G1, 7 days after inoculation
# Description: (§1) Solvent: 24.5 parts by weight of acetone • 24.5 parts by weight of dimethylacetamide Emulsifier: 1 part by weight of alkylaryl polyglycol ether To produce a suitable preparation of active compound, 1 part by weight of active compound is mixed with the stated amounts of solvent and emulsifier, and the concentrate is diluted with water to the desired concentration. To test for preventive activity, young plants are sprayed with the preparation of active compound at the stated rate of application. After the spray coating has dried on, the plants are inoculated with an aqueous spore suspension of Sphaerotheca fuliginea.
# Leptosphaeria nodorum = Leptosphaeria nodorum test (wheat)/preventive; settings: Table C1; 160 ppm a.i.; 8 days after inoculation
# Description: Solvent: 49 parts by weight of N,N-dimethylacetamide Emulsifier: 1 part by weight of alkylaryl polyglycol ether To produce a suitable preparation of active compound, 1 part by weight of active compound or active compound combination is mixed with the stated amounts of solvent and emulsifier, and the concentrate is diluted with water to the desired concentration. To test for preventive activity, young plants are sprayed with the preparation of active compound or active compound combination at the stated rate of application. After the spray coating has been dried, the plants are sprayed with a spore suspension of Leptosphaeria nodorum.
# Venturia inaequalis = assay: Venturia test (apples)/preventive; settings: Table I1, 10 days after inoculation
# Description: as §1, with “application.” for “application. After the spray coating has dried on, the plants are inoculated with an aqueous spore suspension of Sphaerotheca fuliginea.”
# Puccinia triticina = assay: Puccinia triticina-test (wheat)/preventive; settings: Table E1, 8 days after inoculation
# Description: (§2) Solvent: 49 parts by weight of N,N-dimethylacetamide
# (§3) Emulsifier: 1 part by weight of alkylaryl polyglycol ether
# (§4) To produce a suitable preparation of active compound, 1 part by weight of active compound or active compound combination is mixed with the stated amounts of solvent and emulsifier, and the concentrate is diluted with water to the desired concentration.
# (§5) To test for preventive activity, young plants are sprayed with the preparation of active compound or active compound combination at the stated rate of application.
# After the spray coating has been dried, the plants are sprayed with a spore suspension of Puccinia triticina. The plants remain for 48 hours in an incubation cabinet at approximately 20° C. and a relative atmospheric humidity of approximately 100%.
# (§6) The plants are placed in the greenhouse at a temperature of approximately 20° C. and a relative atmospheric humidity of approximately 80%.
# (§7) The test is evaluated 8 days after the inoculation. 0% means an efficacy which corresponds to that of the untreated control, while an efficacy of 100% means that no disease is observed.
# Alternaria solani = assay: Alternaria test (tomatoes)/preventive; settings: 3 days after inoculation
# Description: (§8) Solvent: 24.5 parts by weight of acetone • 24.5 parts by weight of dimethylacetamide
# as §3
# (§9) To produce a suitable preparation of active compound, 1 part by weight of active compound is mixed with the stated amounts of solvent and emulsifier, and the concentrate is diluted with water to the desired concentration.
# (§10) To test for preventive activity, young plants are sprayed with the preparation of active compound at the stated rate of application. After the spray coating has dried on, the plants are inoculated with an aqueous spore suspension of Alternaria solani. The plants are then placed in an incubation cabinet at approximately 20° C. and a relative atmospheric humidity of 100%.
# The test is evaluated 3 days after the inoculation. 0% means an efficacy which corresponds to that of the untreated control while an efficacy of 100% means that no disease is observed.
# Uromyces appendiculatus = assay: Uromyces test (beans)/preventive; settings: 10 days after inoculation
# Description: as §8, §3, §9
# as §10, with “the causal agent of bean rust (Uromyces appendiculatus) and” for “Alternaria solani. The plants are”, “remain for 1 day” for “placed”
# The plants are then placed in a greenhouse at approximately 21° C. and a relative atmospheric humidity of approximately 90%.
# The test is evaluated 10 days after the inoculation. 0% means an efficacy which corresponds to that of the untreated control, while an efficacy of 100% means that no disease is observed.
# [1] = system: Blumeria graminis f.sp. hordei; assay: Blumeria test (barley)/preventive; settings: Table B1; 160 ppm a.i.; 7 days after inoculation
# Description: Solvent: 49 parts by weight of N,N-dimethylacetamide Emulsifier: 1 part by weight of alkylaryl polyglycol ether To produce a suitable preparation of active compound, 1 part by weight of active compound or active compound combination is mixed with the stated amounts of solvent and emulsifier, and the concentrate is diluted with water to the desired concentration. To test for preventive activity, young plants are sprayed with the preparation of active compound or active compound combination at the stated rate of application. After the spray coating has been dried, the plants are dusted with spores of Blumeria graminis f.sp. hordei.
# Pyrenophora teres = assay: Pyrenophora teres-test (barley)/preventive; settings: Table F1; 160 ppm a.i.; 8 days after inoculation
# Description: as §2, §3, §4, §5
# After the spray coating has been dried, the plants are sprayed with a spore suspension of Pyrenophora teres. The plants remain for 48 hours in an incubation cabinet at approximately 20° C. and a relative atmospheric humidity of approximately 100%.
# as §6, §7
structure (smiles),measurement,setting,value
CCN(C)/C=N/c1cc(C)c(Oc2ccccc2)cc1C [(Id)],pest or weed control at 0.25 ppm,Phakopsora pachyrhizi; Table D1,28%
same,pest or weed control at 0.5 ppm,"Phakopsora pachyrhizi; Table D1, 0.5 ppm a.i.",40%
same,pest or weed control at 1 ppm,"Phakopsora pachyrhizi; Table D1, 1 ppm a.i.",70%
same,pest or weed control at 0.25 ppm,Phakopsora pachyrhizi; Table D2,45%
same,Efficacy in % found,Sphaerotheca fuliginea; 0.25 ppm a.i.,0%
same,Efficacy in % found,Sphaerotheca fuliginea; 0.5 ppm a.i.,0%
same,Efficacy in % found,Sphaerotheca fuliginea; 1.25 ppm a.i.,10%
same,Efficacy in % found,Leptosphaeria nodorum,50%
same,Efficacy in % found,Venturia inaequalis; 0.25 ppm a.i.,0%
same,Efficacy in % found,Venturia inaequalis; 0.5 ppm a.i.,0%
same,Efficacy in % found,Venturia inaequalis; 1 ppm a.i.,0%
same,Efficacy in % found,Puccinia triticina; 80 ppm a.i.,70%
same,Efficacy in % found,Puccinia triticina; 160 ppm a.i.,80%
same,Efficacy in % found,"Alternaria solani; Table A1, 0.25 ppm a.i.",0%
same,Efficacy in % found,"Alternaria solani; Table A1, 0.5 ppm a.i.",24%
same,Efficacy in % found,"Alternaria solani; Table A1, 1 ppm a.i.",18%
same,Efficacy in % found,"Alternaria solani; Table A2, 0.5 ppm a.i.",0%
same,Efficacy in % found,"Alternaria solani; Table A2, 1 ppm a.i.",11%
same,Efficacy in % found,"Uromyces appendiculatus; Table H1, 0.1 ppm a.i.",25%
same,Efficacy in % found,"Uromyces appendiculatus; Table H1, 0.25 ppm a.i.",60%
same,Efficacy in % found,"Uromyces appendiculatus; Table H2, 0.2 ppm a.i.",0%
same,Efficacy in % found,"Uromyces appendiculatus; Table H3, 0.125 ppm a.i.",0%
same,Efficacy in % found,"Uromyces appendiculatus; Table H3, 0.25 ppm a.i.",0%
same,Efficacy in % found,[1],60%
same,Efficacy in % found,Pyrenophora teres,13%

# From US9668477B2, “Active compound combinations” (BAYER CROPSCIENCE AG, priority 2012, dated 2017)
